Target: T1, NleB1 (Escherichia coli, UniProt Q8XBX8)
T1 construct: GST-EHEC-NleB1 in pET42a (GST/His tagged), expressed in E. coli BL21 (DE3), nickel purified; some tag cleavage noted
Conditions: inhibitor; for % NleB1 inhibition (µM compound) / 10: 10 µM; for % NleB1 inhibition (µM compound) / 20: 20 µM; for % NleB1 inhibition (µM compound) / 40: 40 µM; for % NleB1 inhibition (µM compound) / 80: 80 µM; for % NleB1 inhibition (µM compound) / 160: 160 µM

Compound	% NleB1 inhibition (µM compound) / 10 [%]	% NleB1 inhibition (µM compound) / 20 [%]	% NleB1 inhibition (µM compound) / 40 [%]	% NleB1 inhibition (µM compound) / 80 [%]	% NleB1 inhibition (µM compound) / 160 [%]
O=c1cc(-c2ccccc2Cl)oc2c(NS(=O)(=O)c3cc(Cl)cc(Cl)c3O)ccc(O)c12 [KUC100066N]	43.0	71.1	84.8	96.0	96.8
Cc1cccc(C(=O)N2CCC(=O)N([C@H](COCc3ccc(Cl)cc3)Cc3ccccc3)CC2)c1 [KUC100143N]	35.9	38.0	39.2	42.0	63.3
O=C1CCN(S(=O)(=O)c2ccccc2)CCN1CCOCc1ccc(Cl)cc1 [KUC100988N]	31.9	14.5	26.3	28.3	36.0
O=C1CN(Cc2ccccc2)S(=O)(=O)c2ccccc21 [KUC101184N]	2.9	18.5	23.8	33.3	44.7
COc1ccc(C2CC(O)(c3ccccc3)Oc3c(C)ccc(C)c32)cc1 (centres unmarked) [KUC101437N]	10.8	13.9	23.3	39.1	57.3
COc1ccc(C(CCN2CCOCC2)c2c(OC)cc(OC)c3c2OC(=O)CC3c2ccc(OC)cc2)cc1 (centres unmarked) [KUC101459N]	14.9	26.2	9.4	18.8	44.1
CCCCCCC(=O)N1C/C=C\C(c2ccc(OC)cc2)N(Cc2ccc(F)cc2)C(=O)[C@@H]1Cc1ccccc1 (some centres unmarked) [KUC101608N]	15.6	17.3	23.2	30.3	32.5
CCCCCCCCN1[C@@H](CC(=O)OC)c2cc(F)ccc2S1(=O)=O [KUC101907N]	23.0	22.1	22.4	29.9	42.2
CCCCCCCCCCCCN1[C@@H](CC(=O)O)c2cc(C(F)(F)F)ccc2S1(=O)=O [KUC101994N]	40.6	48.0	60.1	80.4	94.3
COc1cccc(N2[C@@H](CC(=O)O)c3ccc(/C=C/C(=O)O)cc3S2(=O)=O)c1 [KUC102262N]	27.6	34.2	35.9	41.7	46.5
CCCCCCCCN1[C@@H](CC(=O)OC)c2ccc(/C=C/C(=O)OC)cc2S1(=O)=O [KUC102268N]	25.3	20.8	27.1	33.3	27.9
CC(C)CN1CCC(=O)N(CCC#N)CC1 [KUC102485N]	16.0	23.1	17.6	19.0	20.8
O=C(O)c1cc(-c2ccc(-c3c(-c4ccco4)noc3-c3ccccc3)cc2)nc2ccccc12 [KUC102644N]	50.1	58.4	75.0	89.4	97.2
O=S1(=O)CCOC[C@H](c2ccccc2)N1Cc1ccc(Cl)c(Cl)c1 [KUC102739N]	16.3	16.2	25.3	35.0	45.5
O=C(NC1CCC(=O)N(CCSc2ccccc2)CC1)OCc1ccccc1 (centres unmarked) [KUC102830N]	16.9	20.9	21.9	25.7	38.2
O=C1CCC[C@@H]2Cc3nc4ccc(O)cc4cc3[C@@H]3CCN1[C@H]23 [KUC103038N]	26.7	35.2	34.4	47.9	76.1
C=CCN1CC[C@@H](O)C(=C)S1(=O)=O [KUC103094N]	19.8	23.8	19.2	18.2	18.0

Compound	% NleB1 inhibition (µM compound) / 10 [%]	% NleB1 inhibition (µM compound) / 20 [%]	% NleB1 inhibition (µM compound) / 40 [%]	% NleB1 inhibition (µM compound) / 80 [%]	% NleB1 inhibition (µM compound) / 160 [%]
C[C@@H]1NC(=O)O[C@H]1c1ccco1 [KUC103195N]	23.8	25.6	28.1	33.5	23.9
O=C1CS(=O)(=O)N(Cc2cccc(F)c2)c2ccc(Br)cc21 [KUC103319N]	32.5	37.2	49.0	68.8	81.7
C[C@@H](NS(=O)(=O)c1cc(Cl)ccc1F)[C@H](O)c1ccccc1 [KUC103993N]	27.5	31.8	31.8	34.5	37.0
COc1cc(C(C)=O)ccc1OCc1cn(CC(=O)c2ccc(O)cc2)nn1 [KUC104076N]	32.0	44.9	45.1	61.1	75.5
O=C(Cn1cc(COc2ccccc2C(F)(F)F)nn1)c1ccc(O)cc1 [KUC104085N]	36.1		51.8	63.6	78.4
O=C(Cn1cc(COc2cccc([N+](=O)[O-])c2)nn1)c1ccc(O)cc1 [KUC104086N]	24.5	24.5	34.2	32.8	50.5
CC(=O)c1ccc(OCc2cn(CC(=O)c3ccc(O)cc3)nn2)c(F)c1 [KUC104088N]	45.4	47.7	59.8	76.5	92.0
Cc1cccc(C)c1OCc1cn(CC(=O)c2ccc(O)cc2)nn1 [KUC104090N]	36.8	44.9	53.2	69.2	85.8
O=C(Cn1cc(COc2c(F)c(F)cc(F)c2F)nn1)c1ccc(O)cc1 [KUC104092N]	39.5	42.1	57.8	67.2	80.6
CCCC(=O)c1ccc(OCc2cn(CC(=O)c3ccc(O)cc3)nn2)cc1 [KUC104099N]	32.9	42.2	45.2	62.5	77.5
CC(=O)Nc1ccc(OCc2cn(CC(=O)c3ccc(O)cc3)nn2)cc1 [KUC104101N]	48.1	59.3	74.6	91.3	98.1
CCC(=O)c1ccc(OCc2cn(CC(=O)c3ccc(O)cc3)nn2)cc1 [KUC104108N]	21.0	35.3	49.4	67.7	88.0
COc1ccc(OCc2cn(CC(=O)c3ccc(O)cc3)nn2)cc1 [KUC104109N]	35.4	43.6	53.9	67.3	82.9
O=Cc1cccc(OCc2cn(CC(=O)c3ccc(O)cc3)nn2)c1 [KUC104114N]	31.8	42.3	57.2	76.5	92.0
COc1ccc2cc([C@H](C)C(=O)OCc3cn(CC(=O)c4ccc(O)cc4)nn3)ccc2c1 [KUC104115N]	40.2	44.0	48.2	61.4	78.6
CC1C(=O)N(Cc2cn(CCC3OCCCO3)nn2)CCS(=O)(=O)N1Cc1ccc(-c2cccc(N(C)C)c2)cc1 (centres unmarked) [KUC104889N]	26.6	28.9	29.5	35.9	44.5
